What all share (assay): NCI-60 cell line screen, 48 h
Assay [1] relates to Hs-578T.
Assay [2] relates to NCI-H460.
Assay [3] concerns 786-0.
For assay [4], the system named is IGROV-1.
The subject of assay [5] is MCF7.
Assay [6] relates to HCT-116.
The subject of assay [7] is SN12C.
Assay [8] concerns ACHN.
The test system of assay [9] is MDA-MB-231.
Assay [10] concerns SF-295.
The subject of assay [11] is TK-10.
Assay [12] has as its system PC-3.
Assay [13] relates to DU-145.
For assay [14], the system named is NCI-H23.
Assay [15] deals with HT-29.
The test system of assay [16] is NCI-H522.
The subject of assay [17] is A549.
Assay [18] deals with HOP-92.
For assay [19], the system named is K562.
Assay [20] concerns RXF 393.

Here are results for eleven molecules from ChEMBL document CHEMBL1201862, “PubChem BioAssay data set” (2004).

SMILES strings stand for the structures.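 The compound was tested at five concentrations on cells cultured in 96-well plates, with a 48-hour exposure period. GI50: concentration for 50% inhibition of growth.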 The source made the active and inactive calls. Rule as the data show it: active = GI50 up to about 1.1 µM and inactive = higher.

Take `CN(C)CCNC(=O)c1cccc(NC(=O)c2ccccc2)c1[N+](=O)[O-]`: the GI50 is > 100 µM (inactive) in [1]; 93.5 µM (inactive) in assay [2]; > 100 µM (inactive) in assay [3]; > 100 µM (inactive) in assay [4]; > 100 µM (inactive) in assay [5]; > 100 µM (inactive) in [6]. Further, the GI50 in assay [7], in assay [8], in [9], in assay [10], in assay [11] and in assay [12] was > 100 µM (inactive) throughout. For the same molecule, the GI50 is > 10 µM (inactive) in assay [13]; > 100 µM (inactive) in [14]; 25.5 µM (inactive) in [15]; > 100 µM (inactive) in assay [16]; > 100 µM (inactive) in assay [17].
Turning to `CN(C)CCN(/C(=N/c1ccccc1)N1CCCC1)c1ccccc1`, the GI50 in assay [1] is > 100 µM (inactive); in [2], 42.4 µM (inactive); in [3] it was > 10 µM (inactive); in assay [4], 13.7 µM (inactive); in assay [18], 96.8 µM (inactive); in assay [5] it was 42.5 µM (inactive). The GI50 in [6] is 3.91 µM (inactive); in assay [7] it was 50.5 µM (inactive); in assay [8] it was > 100 µM (inactive); in assay [10], 18.4 µM (inactive); in assay [11], > 100 µM (inactive); in assay [12], 19.8 µM (inactive). The GI50 was 10.3 µM (inactive) in assay [19]; > 100 µM (inactive) in [13]; 31 µM (inactive) in [14]; 5.01 µM (inactive) in assay [15]; 16.5 µM (inactive) in assay [16]; 58.3 µM (inactive) in [17].
In the case of `CCNc1nc2c(ncn2C2CC(O)C(COP(=O)(O)O)O2)c(=O)[nH]1` (centres undefined), the GI50 in [1], in [2], in assay [3], in assay [4], in assay [18] and in assay [5] was > 100 µM (inactive) throughout. Also, the GI50 in assay [6], in assay [7], in assay [8], in assay [9], in assay [10] and in assay [11] was > 100 µM (inactive) throughout. Also, the GI50 in assay [12], in [13], in assay [14], in assay [15], in assay [16] and in [17] was > 100 µM (inactive) throughout.
For `C/C(=N\NC(=S)NNC(=S)N(C)c1ccccc1)c1ccccn1`, the GI50 in assay [1] was 26 µM (inactive); in [2], 0.681 µM (active); in assay [3], 1.3 µM (inactive); in [4], 0.764 µM (active); in assay [18], 2.52 µM (inactive); in assay [20] it was 4.19 µM (inactive). In addition, the GI50 in assay [5] was 1.84 µM (inactive); in assay [6] it was 0.673 µM (active); in assay [7], 1.6 µM (inactive); in assay [8], 0.628 µM (active); in assay [9], 6.22 µM (inactive); in assay [10], 2.94 µM (inactive). Further, the GI50 is 2.86 µM (inactive) in [11]; 2.31 µM (inactive) in assay [19]; 1.02 µM (active) in assay [13]; 2.79 µM (inactive) in [14]; 0.455 µM (active) in assay [15]; 1.11 µM (active) in [17].
Take `O=[N+]([O-])c1ccc(NN/N=N/c2ccc(-c3nc4ccccc4s3)cc2)c([N+](=O)[O-])c1`: the GI50 is 33.5 µM (inactive) in assay [1]; 22.3 µM (inactive) in [2]; 20.8 µM (inactive) in assay [3]; 19.9 µM (inactive) in assay [4]; 21 µM (inactive) in [18]; 18.7 µM (inactive) in [20]. For the same molecule, the GI50 in [6] was 17.5 µM (inactive); in assay [7] it was 22.6 µM (inactive); in [8] it was 22.2 µM (inactive); in assay [9], 22.3 µM (inactive); in assay [10], 19.5 µM (inactive); in assay [11] it was 36.9 µM (inactive). Also, the GI50 was 24.4 µM (inactive) in assay [12]; 22.7 µM (inactive) in assay [19]; 30.7 µM (inactive) in assay [13]; 20.7 µM (inactive) in [14]; 18.8 µM (inactive) in [15]; 25 µM (inactive) in [16]. In assay [17], the GI50 was 27.7 µM (inactive).
With `COc1cc(-c2c[nH]c3ccccc23)nc(-c2c[nH]c3ccccc23)n1`, the GI50 is 16.3 µM (inactive) in [1]; 3.08 µM (inactive) in assay [2]; 1.86 µM (inactive) in [3]; 1.85 µM (inactive) in [4]; 2.34 µM (inactive) in assay [18]; 3.56 µM (inactive) in assay [5]. Besides, the GI50 in assay [6] is 3.43 µM (inactive); in [8] it was 2.61 µM (inactive); in [9], 2.49 µM (inactive); in [10] it was 3.13 µM (inactive); in assay [11], 7.98 µM (inactive); in [12], 2.84 µM (inactive). Also, the GI50 in assay [19] is 3.96 µM (inactive); in [13], 11.3 µM (inactive); in [15] it was 3.63 µM (inactive); in assay [17] it was 3.27 µM (inactive).
As to `COC(=O)c1c2c(cc3c1CC1(Cc4cc5c(cc4C1=O)CCC5)C3)CCC2` (centres undefined), the GI50 in [1] was 16.4 µM (inactive); in assay [2], 86.1 µM (inactive); in assay [3], 35.4 µM (inactive); in [4], 34.3 µM (inactive); in [5], 24.7 µM (inactive); in [6] it was 13.3 µM (inactive). Besides, the GI50 in [7] was > 100 µM (inactive); in assay [8], 86.1 µM (inactive); in [9], > 100 µM (inactive); in assay [10], 21.5 µM (inactive); in assay [11], 22.8 µM (inactive); in assay [12], 6.68 µM (inactive). For the same molecule, the GI50 was 7.94 µM (inactive) in assay [19]; > 100 µM (inactive) in [13]; 40.7 µM (inactive) in [14]; 37.4 µM (inactive) in assay [15]; 19.9 µM (inactive) in assay [16]; 56.6 µM (inactive) in assay [17].
As to `COC(=O)C1(Cc2ccc3c(c2)CCC3)Cc2ccccc2C1`, the GI50 in [1] is 48.3 µM (inactive); in [2], 32.9 µM (inactive); in [3] it was 37.8 µM (inactive); in [4], 48.3 µM (inactive); in [5], 32.8 µM (inactive); in assay [6], 26.9 µM (inactive). Besides, the GI50 in [7] was 30.1 µM (inactive); in [8], 41.9 µM (inactive); in assay [9] it was 35.1 µM (inactive); in assay [10], 27.4 µM (inactive); in assay [11], 82.8 µM (inactive); in [12] it was 16.1 µM (inactive). The GI50 in assay [19] was 11.6 µM (inactive); in [13], 39.4 µM (inactive); in assay [14], 34.7 µM (inactive); in assay [15], 22.2 µM (inactive); in [16], 22.5 µM (inactive); in [17] it was 32.5 µM (inactive).
As for `COc1ccc(OC)c(CNc2ccc(O)c(C(=O)NCCc3ccc(F)cc3)c2)c1`, the GI50 in assay [1] is 22.7 µM (inactive); in assay [2] it was 13.2 µM (inactive); in [3], 23.8 µM (inactive); in assay [4], 5.68 µM (inactive); in assay [5] it was 10.8 µM (inactive); in assay [6], 12.1 µM (inactive). In addition, the GI50 in assay [7] was 19.5 µM (inactive); in assay [8] it was 24 µM (inactive); in assay [9], 7 µM (inactive); in [10] it was 13.7 µM (inactive); in assay [11], 28.9 µM (inactive); in assay [12], 10.1 µM (inactive). Moreover, the GI50 was 3.74 µM (inactive) in assay [19]; 12.8 µM (inactive) in [13]; 17.1 µM (inactive) in assay [14]; 18 µM (inactive) in [15]; 2.83 µM (inactive) in assay [16]; 20.7 µM (inactive) in assay [17].
`N=C(N)C1CN(CCCCCCCCCCN2CC(C(=N)N)C(O)=NC2=O)C(=O)N=C1O` (centres undefined): the GI50 in assay [1], in [2], in [3], in [4], in assay [18] and in assay [20] was > 10 µM (inactive) throughout. In addition, the GI50 in assay [5], in assay [6], in [7], in [8], in assay [9] and in assay [10] was > 10 µM (inactive) each time. For the same molecule, the GI50 in [11], in assay [12], in [19], in [14], in assay [15] and in assay [16] was > 10 µM (inactive) throughout. Moreover, in [17], the GI50 was > 10 µM (inactive).
In the case of `O=C1/C(=C/c2ccc(Cl)cc2)CNC/C1=C\c1ccc(Cl)cc1`, the GI50 in assay [1] is 3.47 µM (inactive); in assay [2] it was 1.35 µM (inactive); in [3], 1.28 µM (inactive); in [4], 1.58 µM (inactive); in assay [5], 1.52 µM (inactive); in assay [6] it was 0.83 µM (active). The GI50 in assay [7] was 2.59 µM (inactive); in [8] it was 3.28 µM (inactive); in assay [9], 2.88 µM (inactive); in assay [11], 3.95 µM (inactive); in assay [12] it was 2.97 µM (inactive); in assay [13], 2.65 µM (inactive). In addition, the GI50 was 1.89 µM (inactive) in assay [14], 1.92 µM (inactive) in [16] and 4.76 µM (inactive) in assay [17].
